pIC50: −log10 of the molar value.
What was measured:
[1] = biological target: CK1ε (Homo sapiens (Human), UniProt P49674); test: CK1ε kinase assay (Caliper LABCHIP electrophoretic separation of fluoresceinated peptide substrate and product); format: biochemical; conditions: 200 pM enzyme, 50 μM ATP, 22 hours at room temperature
In short: (§1)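 Each reaction was incubated 22 hours at room temperature and terminated with EDTA. Read-out was microfluidic electrophoretic separation of fluoresceinated substrate and phospho-product.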

[2] = biological target: CK1δ (Homo sapiens (Human), UniProt P48730); test: CK1δ kinase assay (Caliper LABCHIP electrophoretic separation of fluoresceinated peptide substrate and product); format: biochemical; conditions: 200 pM enzyme, 50 μM ATP, 22 hours at room temperature
In short: as §1

Sequence of CK1δ (P48730 whole entry): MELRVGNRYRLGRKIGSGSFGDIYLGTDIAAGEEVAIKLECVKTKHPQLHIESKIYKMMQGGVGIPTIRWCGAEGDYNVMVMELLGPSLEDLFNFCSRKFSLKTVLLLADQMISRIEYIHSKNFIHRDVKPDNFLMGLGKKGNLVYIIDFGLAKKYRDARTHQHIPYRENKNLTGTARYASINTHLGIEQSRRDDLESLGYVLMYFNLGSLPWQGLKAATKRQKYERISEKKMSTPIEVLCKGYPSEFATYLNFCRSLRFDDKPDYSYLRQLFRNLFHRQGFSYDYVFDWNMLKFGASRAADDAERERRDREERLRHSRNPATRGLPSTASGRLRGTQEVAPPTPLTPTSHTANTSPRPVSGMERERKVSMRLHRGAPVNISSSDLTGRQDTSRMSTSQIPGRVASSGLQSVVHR
Sequence of CK1ε (P49674 whole entry): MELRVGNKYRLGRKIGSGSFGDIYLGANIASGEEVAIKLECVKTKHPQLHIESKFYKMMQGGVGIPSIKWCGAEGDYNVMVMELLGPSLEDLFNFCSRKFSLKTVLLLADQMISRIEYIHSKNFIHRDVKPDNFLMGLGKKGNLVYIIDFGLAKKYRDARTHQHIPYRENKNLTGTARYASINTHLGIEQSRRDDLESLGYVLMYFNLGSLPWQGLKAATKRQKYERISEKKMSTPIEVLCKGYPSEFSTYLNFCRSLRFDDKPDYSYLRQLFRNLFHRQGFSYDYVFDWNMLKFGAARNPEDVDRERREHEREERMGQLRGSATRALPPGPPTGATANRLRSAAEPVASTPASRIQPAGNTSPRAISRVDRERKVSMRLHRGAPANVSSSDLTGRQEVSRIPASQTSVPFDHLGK

| pIC50 [1] | pIC50 [2] | Structure (SMILES) |
| --- | --- | --- |
| 7.57 | 8.53 | CN1CCC(C(=O)Nc2cn3nc(-c4c(-c5ccc(F)cc5)nc5ccccn45)ccc3n2)CC1 [Compound 216, N-(6-(2-(4-fluorophenyl)imidazo[1,2-a]pyridin-3-yl)imidazo[1,2-b]pyridazin-2-yl)-1-methylpiperidine-4-carboxamide] |
| 8.80 | 9.61 | O=C(Nc1cn2nc(-c3c(-c4ccc(F)cc4)ncn3C3CCN(C(=O)OCC4CC4(F)F)CC3)ccc2n1)c1ccnc(F)c1 (centres unmarked) [Compound 82, (2,2-difluorocyclopropyl)methyl 4-(5-(2-(2-fluoroisonicotinamido)imidazo[1,2-b]pyridazin-6-yl)-4-(4-fluorophenyl)-1H-imidazol-1-yl)piperidine-1-carboxylate] |
| 7.44 | 8.41 | CC(C)(C)C(=O)Nc1cn2nc(-c3[nH]cnc3-c3ccc(F)cc3)ccc2n1 [Compound 276, N-(6-(4-(4-fluorophenyl)-1H-imidazol-5-yl)imidazo[1,2-b]pyridazin-2-yl)pivalamide] |
| 7.78 | 8.54 | O=C(Nc1cn2nc(-c3c(-c4ccc(F)cc4)nc(C4CC4)n3C3CCN(c4ccncc4)CC3)ccc2n1)c1ccnc(F)c1 [Compound 123, N-(6-(2-cyclopropyl-4-(4-fluorophenyl)-1-(1-(pyridin-4-yl)piperidin-4-yl)-1H-imidazol-5-yl)imidazo[1,2-b]pyridazin-2-yl)-2-fluoroisonicotinamide] |
| 9.17 | 9.74 | O=C(Nc1cn2nc(-c3c(-c4ccc(F)cc4)ncn3C3CCN(CCN4CCOCC4)CC3)ccc2n1)c1ccnc(F)c1 [Compound 23, 2-fluoro-N-(6-(4-(4-fluorophenyl)-1-(1-(2-morpholinoethyl)piperidin-4-yl)-1H-imidazol-5-yl)imidazo[1,2-b]pyridazin-2-yl)isonicotinamide] |
| 7.58 | 8.63 | CC(=O)N1CCCC1C(=O)Nc1cn2nc(-c3c(-c4ccc(F)cc4)nc(C)n3C)ccc2n1 (centres unmarked) [Compound 363, 1-acetyl-N-(6-(4-(4-fluoro-phenyl)-1,2-dimethyl-1H-imidazol-5-yl)imidazo[1,2-b]pyridazin-2-yl)prolinamide] |
| 9.13 | 9.70 | N#CCC(=O)N1CCC(n2cnc(-c3ccc(F)cc3)c2-c2ccc3nc(NC(=O)c4ccnc(F)c4)cn3n2)CC1 [Compound 46, N-(6-(1-(1-(2-cyanoacetyl)piperidin-4-yl)-4-(4-fluorophenyl)-1H-imidazol-5-yl)imidazo[1,2-b]pyridazin-2-yl)-2-fluoroisonicotinamide] |
| 8.41 | 9.80 | O=C(Nc1cn2nc(-c3c(-c4ccc(F)cc4)ncn3C3CCN(CCC(F)(F)F)CC3)ccc2n1)c1cncs1 [Compound 115, N-(6-(4-(4-fluorophenyl)-1-(1-(3,3,3-trifluoropropyl)piperidin-4-yl)-1H-imidazol-5-yl)imidazo[1,2-b]pyridazin-2-yl)thiazole-5-carboxamide] |
| 8.39 | 9.18 | Cc1n[nH]cc1C(=O)Nc1cn2nc(-c3c(-c4ccc(F)cc4)nc(C)n3C)ccc2n1 [Compound 377, N-(6-(4-(4-fluorophenyl)-1,2-dimethyl-1H-imidazol-5-yl)imidazo[1,2-b]pyridazin-2-yl)-3-methyl-1H-pyrazole-4-carboxamide] |
| 7.71 | 8.41 | O=C(Nc1cn2nc(-c3c(-c4ccc(F)cc4)nc4ccccn34)ccc2n1)c1cnc2ccccc2n1 [Compound 175, N-(6-(2-(4-fluorophenyl)imidazo[1,2-a]pyridin-3-yl)imidazo[1,2-b]pyridazin-2-yl)-2-quinoxalinecarboxamide] |
| 8.08 | 9.53 | O=C(Nc1cn2nc(-c3c(-c4ccc(F)cc4)ncn3CC(=O)N3CCCC3)ccc2n1)c1ccnc(F)c1 [Compound 250, 2-fluoro-N-(6-(4-(4-fluorophenyl)-1-(2-oxo-2-(1-pyrrolidinyl)ethyl)-1H-imidazol-5-yl)imidazo[1,2-b]pyridazin-2-yl)isonicotinamide] |
| 8.59 | 9.52 | O=C(Nc1cn2nc(-c3c(-c4ccc(F)cc4)nc4n3CCNC4)ccc2n1)c1cccc(-c2cccnc2)c1 [Compound 459, N-(6-(2-(4-Fluorophenyl)-5,6,7,8-tetrahydroimidazo[1,2-a]pyrazin-3-yl)imidazo[1,2-b]pyridazin-2-yl)-3-(pyridin-3-yl)benzamide] |
| 8.31 | 9.28 | Cc1nc(-c2ccc(F)cc2)c(-c2ccc3nc(NC(=O)c4ccnc(F)c4)cn3n2)n1C1CCN(C(=O)c2ccsn2)CC1 [Compound 147, 2-fluoro-N-(6-(4-(4-fluorophenyl)-1-(1-(isothiazole-3-carbonyl)piperidin-4-yl)-2-methyl-1H-imidazol-5-yl)imidazo[1,2-b]pyridazin-2-yl)isonicotinamide] |
| 7.32 | 8.25 | O=C(Nc1cn2nc(-c3c(-c4ccc(F)cc4)nc4ccccn34)ccc2n1)c1csnn1 [Compound 176, N-(6-(2-(4-fluorophenyl)imidazo[1,2-a]pyridin-3-yl)imidazo[1,2-b]pyridazin-2-yl)-1,2,3-thiadiazole-4-carboxamide] |
| 8.11 | 9.27 | O=C(Nc1cn2nc(-c3c(-c4ccc(F)cc4)nc(C4CC4)n3C3CCN(CCN4CCOCC4)CC3)ccc2n1)c1ccnc(F)c1 [Compound 134] |
| 7.30 | 8.44 | Cc1nnc(C(=O)Nc2cn3nc(-c4c(-c5ccc(F)cc5)nc(C)n4C)ccc3n2)o1 [Compound 367, N-(6-(4-(4-fluorophenyl)-1,2-dimethyl-1H-imidazol-5-yl)imidazo[1,2-b]pyridazin-2-yl)-5-methyl-1,3,4-oxa-diazole-2-carboxamide] |
| 8.38 | 8.98 | Cc1nc(-c2ccc(F)cc2)c(-c2ccc3nc(NC(=O)c4sc(-c5ccncc5)nc4C(F)(F)F)cn3n2)n1C [Compound 405, N-(6-(4-(4-Fluorophenyl)-1,2-dimethyl-1H-imidazol-5-yl)imidazo[1,2-b]pyridazin-2-yl)-2-(pyridin-4-yl)-4-(trifluoromethyl)thiazole-5-carboxamide] |
| 9.43 | 9.76 | O=C(Nc1cn2nc(-c3c(-c4ccc(F)cc4)ncn3C3CCN(C(=O)c4ccon4)CC3)ccc2n1)c1cncs1 [Compound 116, N-(6-(4-(4-fluorophenyl)-1-(1-(isoxazole-3-carbonyl)piperidin-4-yl)-1H-imidazol-5-yl)imidazo[1,2-b]pyridazin-2-yl)thiazole-5-carboxamide] |
| 7.98 | 8.55 | CNc1ccc2nc(-c3ccc(F)cc3)c(-c3ccc4nc(NC(=O)c5ccncc5)cn4n3)n2n1 [Compound 225, N-(2-(4-fluorophenyl)-6-(methyl-amino)-[3,6′-biimidazo[1,2-b]pyridazin]-2′-yl)isonicotinamide] |
| 7.92 | 8.76 | Cc1nc(-c2ccc(F)cc2)c(-c2ccc3nc(NC(=O)c4cc5ccccc5[nH]4)cn3n2)n1C [Compound 319, N-(6-(4-(4-fluorophenyl)-1,2-dimethyl-1H-imidazol-5-yl)imidazo[1,2-b]pyridazin-2-yl)-1H-indole-2-carboxamide] |
| 7.73 | 8.95 | O=C(Nc1cn2nc(-c3c(-c4ccc(F)cc4)ncn3CCn3cccn3)ccc2n1)c1ccnc(F)c1 [Compound 254, 2-fluoro-N-(6-(4-(4-fluorophenyl)-1-(2-(1H-pyrazol-1-yl)ethyl)-1H-imidazol-5-yl)imidazo[1,2-b]pyridazin-2-yl)isonicotinamide] |
| 8.05 | 9.15 | O=C(Nc1cn2nc(-c3c(-c4ccc(F)cc4)nc4n3CCOC4)ccc2n1)c1cc(F)nc(F)c1 [Compound 449, 2,6-Difluoro-N-(6-(2-(4-fluorophenyl)-6,8-dihydro-5H-imidazo[2,1-c][1,4]oxazin-3-yl)imidazo[1,2-b]pyridazin-2-yl)isonicotinamide] |
| 8.51 | 9.32 | Cc1nc(-c2ccc(F)cc2)c(-c2ccc3nc(NC(=O)c4ccc(-n5cccn5)nc4)cn3n2)n1C [Compound 314, N-(6-(4-(4-fluorophenyl)-1,2-dimethyl-1H-imidazol-5-yl)imidazo[1,2-b]pyridazin-2-yl)-6-(1H-pyrazol-1-yl) nicotinamide] |
| 8.31 | 9.24 | Cc1cc(C(=O)Nc2cn3nc(-c4c(-c5ccc(F)cc5)nc(C)n4C)ccc3n2)on1 [Compound 379, N-(6-(4-(4-fluorophenyl)-1,2-dimethyl-1H-imidazol-5-yl)imidazo[1,2-b]pyridazin-2-yl)-3-methyl-5-isoxazole-carboxamide] |
| 8.41 | 9.57 | Cc1nc(-c2cccnc2)sc1C(=O)Nc1cn2nc(-c3c(-c4ccc(F)cc4)ncn3C3CCN(CCC(F)(F)F)CC3)ccc2n1 [Compound 98, N-(6-(4-(4-fluorophenyl)-1-(1-(3,3,3-trifluoropropyl)piperidin-4-yl)-1H-imidazol-5-yl)imidazo [1,2-b]pyridazin-2-yl)-4-methyl-2-(pyridin-3-yl)thiazole-5-carboxamide] |
| 8.54 | 9.38 | Cn1cnc(-c2ccc(F)cc2)c1-c1ccc2nc(NC(=O)c3ccnc(F)c3)cn2n1 [Compound 231, 2-fluoro-N-(6-(4-(4-fluorophenyl)-1-methyl-1H-imidazol-5-yl)imidazo[1,2-b]pyridazin-2-yl) isonicotinamide] |
| 8.21 | 9.10 | O=C(Nc1cn2nc(-c3c(-c4ccc(F)cc4)nc4n3CCN(C(=O)C3(C(F)(F)F)CCC3)C4)ccc2n1)c1ccnc(F)c1 [Compound 467, 2-Fluoro-N-(6-(2-(4-fluorophenyl)-7-(1-(trifluoromethyl)cyclobutanecarbonyl)-5,6,7,8-tetrahydroimidazo[1,2-a]pyrazin-3-yl)imidazo[1,2-b]pyridazin-2-yl)isonicotinamide] |
| 6.82 | 8.12 | Cc1nc(-c2ccc(F)cc2)c(-c2ccc3nc(NC(=O)Nc4cccc(C#N)c4)cn3n2)n1C [Compound 410, 1-(3-cyanophenyl)-3-(6-(4-(4-fluorophenyl)-1,2-dimethyl-1H-imidazol-5-yl)imidazo[1,2-b]pyridazin-2-yl)urea] |

Source: patent US9556179B2 (BRISTOL-MYERS SQUIBB COMPANY, priority 2012, dated 2017)
